Experimental data from patent US20250263370A1 (Tay Therapeutics Limited, priority 2022, published 2025).
Converted amounts (≈) assume the structure as drawn.

Experiments:
BRD4 BD1 = BRD4 BD1 (Homo sapiens (Human), UniProt O60885); experiment: NanoBRET bromodomain assay, NanoLuc-BRD4-BD1 fusion in HEK293 cells; type: cell-based; details: top concentration 10 μM
Experimental: HEK293 cells were transfected using NanoLuc-BRD4-BD1 or NanoLuc-BRD4-BD2 fusion vectors and incubated at 37° C. in an atmosphere of 5% CO2 for 20-24 hours. The transfected cells were then dispensed into 96-well plates using 90 μl cell suspension per well containing 2×10^5 cells/mL in Opti-MEM and 1× final concentration of tracer. 90 μL per well of cell suspension without tracer was also dispensed into at least 3 wells as “No tracer control samples” for background correction. Serially diluted test compounds were prepared at 1000× concentration in DMSO and further diluted to 10× concentration in Opti-MEM. […] Plates were then incubated at 37° C. +5% 002 incubator for 2 hours. […] Donor emission (450 nm) and acceptor emission (610 nm) were measured using PHERAstar (BMG LabTech). For data analysis, the raw BRET ratio was generated and converted to milliBRET units with background correction using the formula: [(Acceptorsample/Donorsample−(Acceptorno tracer control/Donorno tracer control)]×1000. The mBU data was plotted as a function of compound concentration and IC50s for BRET assay were determined by nonlinear regression analysis of concentration response curves using the Collaborative Drug Discovery Vault software. The fold-selectivity was calculated by dividing the IC50 for BRD4 BD1 by the IC50 for BRD4 BD2.

[1] = Plasma stability assay, rat plasma; type: in vitro ADME
How it was run: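 Compound at 5 μM final (0.5% DMSO) in one protocol or 10 μM (2% DMSO) in the other, incubated in plasma at 37° C.; samples taken 0–120 min and quenched with cold acetonitrile plus internal standard. LC-MS/MS gives percent remaining relative to the 0-min sample.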

[2] = Intrinsic clearance in liver microsomes, rat; type: in vitro ADME; details: Method 1; for half-life at 1 μM: rat, liver microsomes, pH 7.4, rat liver microsomes, read-out: Half-Life (T1/2) (min), Rat
How it was run: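 Compound at 1 μM (0.1–1% DMSO) incubated at 37 °C with mouse or rat liver microsomes (0.5 mg/mL protein) and 1 mM NADPH in PBS pH 7.4; samples taken up to 60 min and quenched in cold acetonitrile. LC-MS/MS of percent remaining gave half-life and CLint; no-NADPH controls run.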

[3] = Thermodynamic solubility in FaSSIF pH 6.5 buffer; type: physicochemical; details: for solubility thermodynamic / solubility thermodynamic at 24 h: FaSSIF buffer, 25 °C, pH 6.5, fassif, thermodynamic from solid; for solubility thermodynamic: Method 2 (LCMS, 25° C.)
Experimental: FaSSIF v2 buffer is freshly prepared prior to use according to the suppliers' instructions and the pH adjusted to 6.5 using 1 M NaOH or 1 M HCl as required. From 1 mM working solution of test compound in DMSO, the λmax of the test compound is determined by scanning from 200 nm to 700 nm, in 1 nm steps with an EPOCH UV/Visible spectrophotometer (Biotek Instruments Inc.). A 12-point standard curve of compound concentration versus absorption at λmax is generated via two-fold serial dilutions of the 1 mM working solution with DMSO. Approximately 1 mg of test compound is accurately weighed into an Eppendorf tube and the appropriate volume of FaSSIF buffer is added to make a nominal concentration of 1 mg/mL. The tube is incubated on a rotator at 20 rpm, 25° C. for 24 hrs. Samples are then filtered using 0.45 μm filters (Sartorious, CAT #1776C) and the filtrate subjected to UV-vis spectroscopy analysis. The absorption at λmax is compared to the standard curve to determine the concentration of compound in solution after 24 hours.
FaSSIF buffer was prepared according to the suppliers' instructions and the pH adjusted to 6.5 using 1 M NaOH or 1 M HCl as required. […] A stir stick was added to each vial and vials sealed with a moulded PTDE/SIL 96-well plate cover. The plate was shaken at 25° C. at 1,100 rpm using an Eppendorf Thermomixer Comfort plate shaker. The plates were filtered using a vacuum manifold and diluted with a mixture of H2O and acetonitrile containing internal standard. The concentration of the test compound in the filtrate was determined by LCMS analysis with reference to the internal standards to determine the solubility in the buffer.

BRD4 BD2 = BRD4 BD2 (Homo sapiens (Human), UniProt O60885); experiment: NanoBRET bromodomain assay, NanoLuc-BRD4-BD2 fusion in HEK293 cells; details: for IC50: BRD4 BD2 (IC50), NanoBRET, HEK293 cells, top concentration 10 μM; for Fold selectivity: IC50 for BRD4 BD1 divided by IC50 for BRD4 BD2, qualitative if an IC50 is at the upper limit;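 on all read-outs here: tracer displacement BRET read in transfected cells after 2 h compound exposure at 37 °C, signal in milliBRET units corrected against no-tracer background wells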
[4] = Sprague-Dawley rat pharmacokinetics, IV and PO cassette dosing; type: in vivo; details: for PO F: PO 5 mg/kg; for PO F / IV T1/2: Method 1; for half-life: male, Sprague-Dawley, rat, plasma, iv, 1 mg/kg, Method 1, read-out: IV T1/2 (converted); for half-life / IV T1/2: IV 1 mg/kg
How it was run: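 Male Sprague-Dawley rats (2 per arm) given up to 5 compounds in cassette, 1 mg/kg IV and 5 mg/kg PO, formulated in 5% DMSO/40% PEG-400/55% water. Plasma from serial blood samples was acetonitrile-precipitated and analysed by LC/MS/MS against matrix-matched standard curves.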

[5] = Plasma stability assay, mouse plasma; type: in vitro ADME; details: Method 1 (5 μM)
Experimental: (§1) From stock solution of compound in 10 mM DMSO, a working solution of 1 mM is prepared by diluting the compound in DMSO. To 398 μL of plasma pre-warmed at 37° C. for 15 minutes), 2 μL of working solution of compound is added, resulting in a final concentration of 5 μM (0.5% DMSO) for the compound. The sample is then incubated at 37° C. Aliquot is withdrawn at specified time-points (0, 15, 30, 60 and 120 mins). The reaction is stopped by addition of 450 μL cold acetonitrile containing internal standard (IS). […] Aliquots of the supernatant is analysed using LC-MS/MS. The percent remaining of the compound at each time point is calculated with respect to the control sample (0 min time-point).
(§2) A working solution of compound (500 μM) is prepared in DMSO (100%). To 735 μL of plasma, 15 μL of working solution of compound is added—resulting in a final concentration of 10 μM (2% DMSO) for the compound. The sample is then incubated at 37° C. Aliquot is withdrawn at time-points—0, 15, 30, 60, 90 and 120 mins. The reaction is stopped by using chilled acetonitrile containing internal standard (IS). The samples are centrifuged and the supernatants analyzed using LC-MS/MS. The percent remaining of the compound at each time point is calculated with respect to the control sample (0 min time-point).

[6] = Plasma stability assay, human plasma; type: in vitro ADME; details: Method 1 (5 μM)
Experimental: as §1, §2

[7] = Intrinsic clearance in liver microsomes, mouse; type: in vitro ADME; details: pH 7.4, Method 1, read-out: Half-Life (T1/2) (min), Mouse
Experimental: From stock solution of compound on 10 mM DMSO, a working solution of 0.1 mM is prepared by diluting the compound in DMSO. 6.25 μL of a 20 mg/mL solution of microsomes in PBS pH 7.4 buffer is added to 216.25 μL PBS pH 7.4 buffer (final microsome concentration—0.5 mg/mL). 25 μL of 10 mM solution of NADPH in PBS pH 7.4 buffer is added to the incubations (final NADPH concentration—1 mM). The mixture is pre-warmed to 37° C. for 10 minutes. 2.5 μL of test compound working solution is added (final compound concentration—1 μM with 1% DMSO). Aliquots of 30 μL are taken from the reaction solution at 0.5, 5, 15, 30 and 60 minutes. The reaction was stopped by the addition of 5 volumes of cold acetonitrile with IS (100 nM alprazolam, 200 nM caffeine and 100 nM tolbutamide). Samples were centrifuged at 3, 220 g for 40 minutes. Aliquots of 100 μL of the supernatant are mixed with 100 μL of ultra-pure H2O and used for LC-MS/MS analysis. The percent compound remaining at each time point is calculated with respect to that of the 0.5 min sample. The data are analysed to calculate half-life. Control experiments are run without NADPH and blank samples are prepared using DMSO without the test compound.
A 50 mM stock solution (in DMSO) is prepared for the compound. From the stock solution, a working solution of 0.5 mM is prepared by diluting the compound in DMSO. This concentration of working solution is prepared considering a final concentration of 1 uM with 0.1% DMSO. The compound (1 μL of working solution) is spiked in PBS with pH 7.4 ([…]) at a concentration of 1 μM. Subsequently, 110 μL of 10 mM NADPH is added (as a co-factor). The sample is incubated at 37° C. for 15 min. Following this, pre-warmed liver microsomes (27.5 μL; final protein conc. 0.5 mg/mL) are added. The samples are then incubated at 37° C. Aliquots of samples are withdrawn at 0, 5, 15, 30, 45 and 60 min. The reaction is stopped by using chilled acetonitrile containing internal standard. The samples are centrifuged, and the supernatants analysed by LC-MS/MS. The percent compound remaining at each time point is calculated with respect to that of the 0 min sample. The data are then analysed to calculate half-life and intrinsic clearance (CLint). Control experiments are run without NADPH and blank samples are prepared using DMSO without the test compound.

[8] = Method 1 (UV-vis, 25° C., 24 hrs)

With `CNC(=O)c1[nH]c(C(=O)NC2CCC2)cc1OC(C)c1ccc(Cl)cn1` (single isomer, unassigned) [Example 33, 3-(1-(5-chloropyridin-2-yl)ethoxy)-N^5-cyclobutyl-N^2-methyl-1H-pyrrole-2,5-dicarboxamide] the IC50 (BRD4 BD1) was ≥ 10 µM, the “Plasma Stability (% remaining at 120 minutes), Rat” value ([1]; Method 2 (10 μM)) was 85% and the half-life at 1 μM [2] was > 60 min. The solubility thermodynamic [3] was 685 µM (≈ 258 µg/mL), the IC50 (BRD4 BD2) was 50 to 200 nM and the Fold selectivity (BRD4 BD2) was “XX (Fold >50 and ≤200)”.
With `C#Cc1ccc(C(C)Oc2cc(C(=O)NCC)[nH]c2C(=O)NC)cc1` (single isomer, unassigned) [Example 70, N^5-ethyl-3-(1-(4-ethynylphenyl)ethoxy)-N^2-methyl-1H-pyrrole-2,5-dicarboxamide] the IC50 (BRD4 BD1) was ≥ 10 µM, the “Plasma Stability (% remaining at 120 minutes), Rat” value ([1]; Method 2 (10 μM)) was 92% and the half-life at 1 μM [2] was 60 min. The solubility thermodynamic [3] was 365 µM (≈ 124 µg/mL), the “PO F” value [4] was 44% and the half-life [4] was 36 min. For the same compound, the IC50 (BRD4 BD2) was < 50 nM and the Fold selectivity (BRD4 BD2) was “XXX (Fold >200)”.
In the case of `CNC(=O)c1[nH]c(C(=O)N[C@H]2CC[C@H](O)CC2)cc1OC(C)c1ccccc1` (single isomer, unassigned) [Example 97, N^5-(trans-4-hydroxycyclohexyl)-N^2-methyl-3-(1-phenylethoxy)-1H-pyrrole-2,5-dicarboxamide], the IC50 (BRD4 BD1) is reported as ≥ 10 µM, the “Plasma Stability (% remaining at 120 minutes), Rat” value ([1]; Method 1 (5 μM)) is reported as >99% and the “Plasma Stability (% remaining at 120 minutes), Mouse” value [5] is reported as 93%. For the same compound, the “Plasma Stability (% remaining at 120 minutes), Human” value [6] was >99%, the half-life at 1 μM [7] was 70 min and the half-life at 1 μM [2] was > 60 min. The solubility thermodynamic at 24 h [3, 8] was 418 µM (≈ 161 µg/mL), the “PO F” value [4] was 60% and the half-life [4] was 84 min. For the same compound, the IC50 (BRD4 BD2) was 50 to 200 nM and the Fold selectivity (BRD4 BD2) was “XX (Fold >50 and ≤200)”.
For `CNC(=O)c1[nH]c(C(=O)N[C@H]2CC[C@H](O)CC2)cc1OC(C)c1ccccc1` (single isomer, unassigned) [Example 98, N^5-(trans-4-hydroxycyclohexyl)-N^2-methyl-3-(1-phenylethoxy)-1H-pyrrole-2,5-dicarboxamide], the IC50 (BRD4 BD1) was ≥ 10 µM, the “Half-Life (T1/2) (min), Rat” value ([2]; rat liver microsomes) was >60 min and the “Thermodynamic Solubility FaSSIF pH 6.5 (μM)” value [3, 8] was 429 μM. For the same compound, the “IV T1/2” value [4] was 1.2 h, the “PO F” value [4] was 31% and the IC50 (BRD4 BD2) was > 10000 nM. For the same compound, the Fold selectivity (BRD4 BD2) was “— (Fold ≥0 and ≤2)”.
For `CNC(=O)c1[nH]c(C(=O)NC2CCC2)cc1OC(C)c1ccccc1` (single isomer, unassigned) [Example 102, N^5-cyclobutyl-N^2-methyl-3-(1-phenylethoxy)-1H-pyrrole-2,5-dicarboxamide], the IC50 (BRD4 BD1) was ≥ 10 µM, the half-life at 1 μM [2] was 41 min and the solubility thermodynamic at 24 h [3, 8] was 188 µM (≈ 64.2 µg/mL). For the same compound, the “PO F” value [4] was 13%, the half-life [4] was 162 min and the IC50 (BRD4 BD2) was > 10000 nM. The Fold selectivity (BRD4 BD2) was “— (Fold ≥0 and ≤2)”.
With `CNC(=O)c1[nH]c(C(=O)NC2CC2)cc1O[C@@H](C)c1ccccc1F` [Example 59, (S)—N^5-cyclopropyl-3-(1-(2-fluorophenyl)ethoxy)-N^2-methyl-1H-pyrrole-2,5-dicarboxamide] the IC50 (BRD4 BD1) was ≥ 10 µM, the “Plasma Stability (% remaining at 120 minutes), Rat” value ([1]; Method 2 (10 μM)) was 50% and the half-life at 1 μM [2] was > 60 min. The solubility thermodynamic [3] was 635 µM (≈ 219 µg/mL), the “IV T1/2” value [4] was 1.1 h and the “PO F” value [4] was 70%. The IC50 (BRD4 BD2) was 50 to 200 nM and the Fold selectivity (BRD4 BD2) was “XX (Fold >50 and ≤200)”.
In the case of `CNC(=O)c1[nH]c(C(=O)NC2CC2)cc1O[C@@H](C)c1ccc(Cl)cc1` [Example 62, (S)-3-(1-(4-chlorophenyl)ethoxy)-N^5-cyclopropyl-N^2-methyl-1H-pyrrole-2,5-dicarboxamide], the IC50 (BRD4 BD1) is reported as ≥ 10 µM, the “Plasma Stability (% remaining at 120 minutes), Rat” value ([1]; Method 2 (10 μM)) is reported as 82% and the half-life at 1 μM [2] is reported as > 60 min. For the same compound, the solubility thermodynamic [3] was 320 µM (≈ 116 µg/mL), the “PO F” value [4] was 8% and the half-life [4] was 30 min. For the same compound, the IC50 (BRD4 BD2) was < 50 nM and the Fold selectivity (BRD4 BD2) was “XXX (Fold >200)”.
